# Test system: UM16 cell line
# Assay: GSEA of Bru-seq data (hallmark, KEGG, GO pathways, transcription factors)
# Type: cell-based
# Conditions: 4 hours
# Source text: Consistent with this observation, there are also massive metabolite pathways influenced including starch and sucrose metabolism, glycolysis and gluconeogenesis, purine metabolism, pyrimidine metabolism, N-glycan biosynthesis, etc.
compound,measurement,setting,value
"CCOC(=O)[C@@H]1CCCN(S(=O)(=O)c2ccc(S(=O)(=O)N(CC)CC)cc2)C1 [DX2-201, ethyl (R)-1-((4-(N,N-diethylsulfamoyl)phenyl)sulfonyl)piperidine-3-carboxylate]",ES KEGG_AMINOACYL_TRNA_BIOSYNTHESIS,5 pM,−0.4260
same,ES KEGG_DNA_REPLICATION,5 pM,−0.5795
same,ES KEGG_NUCLEOTIDE_EXCISION_REPAIR,5 pM,−0.4603
same,ES KEGG_N_GLYCAN_BIOSYNTHESIS,5 pM,−0.5360
same,ES KEGG_OXIDATIVE_PHOSPHORYLATION,5 pM,−0.4451
same,ES KEGG_PARKINSONS_DISEASE,5 pM,−0.4446
same,ES KEGG_PROTEASOME,5 pM,−0.5628
same,ES KEGG_PURINE_METABOLISM,5 pM,−0.4914
same,ES KEGG_PYRIMIDINE_METABOLISM,5 pM,−0.4987
same,ES KEGG_RNA_POLYMERASE,5 pM,−0.6348
same,ES KEGG_SPLICEOSOME,5 pM,−0.4510
same,NES KEGG_ALZHEIMERS_DISEASE,5 pM,−1.6021
same,NES KEGG_AMINOACYL_TRNA_BIOSYNTHESIS,5 pM,−1.4417
same,NES KEGG_DNA_REPLICATION,5 pM,−1.9358
same,NES KEGG_HUNTINGTONS_DISEASE,5 pM,−1.7040
same,NES KEGG_MISMATCH_REPAIR,5 pM,−1.8751
same,NES KEGG_NUCLEOTIDE_EXCISION_REPAIR,5 pM,−1.5835
same,NES KEGG_N_GLYCAN_BIOSYNTHESIS,5 pM,−1.8440
same,NES KEGG_OXIDATIVE_PHOSPHORYLATION,5 pM,−1.7650
same,NES KEGG_PARKINSONS_DISEASE,5 pM,−1.7382
same,NES KEGG_PROTEASOME,5 pM,−1.9164
same,NES KEGG_PURINE_METABOLISM,5 pM,−2.0380
same,NES KEGG_PYRIMIDINE_METABOLISM,5 pM,−1.9279
same,NES KEGG_SPLICEOSOME,5 pM,−1.8728
same,ES GO_ADP_METABOLIC_PROCESS,5 μM,0.6343
same,ES GO_ATP_GENERATION_FROM_ADP,5 μM,0.6848
same,ES GO_GLUCOSE_CATABOLIC_PROCESS,5 μM,0.7209
same,ES GO_HEXOSE_CATABOLIC_PROCESS,5 μM,0.6548
same,ES GO_MONOSACCHARIDE_CATABOLIC_PROCESS,5 μM,0.5791
same,ES GO_NADH_METABOLIC_PROCESS,5 μM,0.6704
same,ES GO_NEGATIVE_REGULATION_OF_FAT_CELL_DIFFERENTIATION,5 μM,0.6098
same,ES GO_NUCLEOTIDE_PHOSPHORYLATION,5 μM,0.5920
same,ES GO_PYRUVATE_METABOLIC_PROCESS,5 μM,0.6035
same,ES GO_RESPONSE_TO_OXYGEN_LEVELS,5 μM,0.4230
same,ES GO_RIBONUCLEOSIDE_DIPHOSPHATE_METABOLIC_PROCESS,5 μM,0.5746
same,ES HALLMARK_ALLOGRAFT_REJECTION,5 μM,0.2962
same,ES HALLMARK_ANDROGEN_RESPONSE,5 μM,0.3155
same,ES HALLMARK_ANGIOGENESIS,5 μM,−0.5078
same,ES HALLMARK_APOPTOSIS,5 μM,0.3812
same,ES HALLMARK_BILE_ACID_METABOLISM,5 μM,0.3249
same,ES HALLMARK_CHOLESTEROL_HOMEOSTASIS,5 μM,0.4969
same,ES HALLMARK_DNA_REPAIR,5 μM,−0.4085
same,ES HALLMARK_E2F_TARGETS,5 μM,−0.3804
same,ES HALLMARK_ESTROGEN_RESPONSE_LATE,5 μM,0.3437
same,ES HALLMARK_FATTY_ACID_METABOLISM,5 μM,0.2942
same,ES HALLMARK_GLYCOLYSIS,5 μM,0.4109
same,ES HALLMARK_HEDGEHOG_SIGNALING,5 μM,0.4848
same,ES HALLMARK_HEME_METABOLISM,5 μM,0.3641
same,ES HALLMARK_HYPOXIA,5 μM,0.6294
same,ES HALLMARK_IL2_STAT5_SIGNALING,5 μM,0.3402
same,ES HALLMARK_INFLAMMATORY_RESPONSE,5 μM,0.2995
same,ES HALLMARK_KRAS_SIGNALING_DN,5 μM,0.3965
same,ES HALLMARK_MITOTIC_SPINDLE,5 μM,0.3104
same,ES HALLMARK_MTORC1_SIGNALING,5 μM,0.2680
same,ES HALLMARK_MYC_TARGETS_V1,5 μM,−0.5426
same,ES HALLMARK_MYC_TARGETS_V2,5 μM,−0.6265
same,ES HALLMARK_MYOGENESIS,5 μM,0.3657
same,ES HALLMARK_OXIDATIVE_PHOSPHORYLATION,5 μM,−0.3812
same,ES HALLMARK_P53_PATHWAY,5 μM,0.3403
same,ES HALLMARK_TNFA_SIGNALING_VIA_NFKB,5 μM,0.3199
same,ES HALLMARK_UNFOLDED_PROTEIN_RESPONSE,5 μM,−0.3254
same,ES HALLMARK_UV_RESPONSE_DN,5 μM,0.3784
same,ES HALLMARK_XENOBIOTIC_METABOLISM,5 μM,0.2890
same,ES KEGG_DORSO_VENTRAL_AXIS_FORMATION,5 μM,0.6614
same,ES KEGG_GLYCOLYSIS_GLUCONEOGENESIS,5 μM,0.5362
same,ES KEGG_LEISHMANIA_INFECTION,5 μM,0.5017
same,ES KEGG_REGULATION_OF_AUTOPHAGY,5 μM,0.5972
same,ES KEGG_RENAL_CELL_CARCINOMA,5 μM,0.4210
same,ES KEGG_STARCH_AND_SUCROSE_METABOLISM,5 μM,0.7356
same,ES KEGG_TYPE_II_DIABETES_MELLITUS,5 μM,0.5316
same,NES GO_ADP_METABOLIC_PROCESS,5 μM,2.1062
same,NES GO_ATP_GENERATION_FROM_ADP,5 μM,2.0929
same,NES GO_GLUCOSE_CATABOLIC_PROCESS,5 μM,2.1191
same,NES GO_HEXOSE_CATABOLIC_PROCESS,5 μM,2.1301
same,NES GO_MONOSACCHARIDE_CATABOLIC_PROCESS,5 μM,1.9771
same,NES GO_NADH_METABOLIC_PROCESS,5 μM,2.0814
same,NES GO_NEGATIVE_REGULATION_OF_FAT_CELL_DIFFERENTIATION,5 μM,1.9052
same,NES GO_NUCLEOTIDE_PHOSPHORYLATION,5 μM,2.0727
same,NES GO_PYRUVATE_METABOLIC_PROCESS,5 μM,2.1281
same,NES GO_RESPONSE_TO_OXYGEN_LEVELS,5 μM,1.9612
same,NES GO_RIBONUCLEOSIDE_DIPHOSPHATE_METABOLIC_PROCESS,5 μM,2.0919
same,NES HALLMARK_ALLOGRAFT_REJECTION,5 μM,1.2241
same,NES HALLMARK_ANDROGEN_RESPONSE,5 μM,1.3002
same,NES HALLMARK_ANGIOGENESIS,5 μM,−1.4124
same,NES HALLMARK_APOPTOSIS,5 μM,1.6931
same,NES HALLMARK_BILE_ACID_METABOLISM,5 μM,1.2479
same,NES HALLMARK_CHOLESTEROL_HOMEOSTASIS,5 μM,1.9354
same,NES HALLMARK_DNA_REPAIR,5 μM,−1.7322
same,NES HALLMARK_E2F_TARGETS,5 μM,−1.7010
same,NES HALLMARK_ESTROGEN_RESPONSE_LATE,5 μM,1.5630
same,NES HALLMARK_FATTY_ACID_METABOLISM,5 μM,1.2729
same,NES HALLMARK_GLYCOLYSIS,5 μM,1.8782
same,NES HALLMARK_HEDGEHOG_SIGNALING,5 μM,1.3854
same,NES HALLMARK_HEME_METABOLISM,5 μM,1.6288
same,NES HALLMARK_HYPOXIA,5 μM,2.8139
same,NES HALLMARK_IL2_STAT5_SIGNALING,5 μM,1.5174
same,NES HALLMARK_INFLAMMATORY_RESPONSE,5 μM,1.2667
same,NES HALLMARK_KRAS_SIGNALING_DN,5 μM,1.4318
same,NES HALLMARK_MITOTIC_SPINDLE,5 μM,1.4709
same,NES HALLMARK_MTORC1_SIGNALING,5 μM,1.2451
same,NES HALLMARK_MYC_TARGETS_V1,5 μM,−2.4192
same,NES HALLMARK_MYC_TARGETS_V2,5 μM,−2.2565
same,NES HALLMARK_MYOGENESIS,5 μM,1.5149
same,NES HALLMARK_OXIDATIVE_PHOSPHORYLATION,5 μM,−1.6882
same,NES HALLMARK_P53_PATHWAY,5 μM,1.5682
same,NES HALLMARK_TNFA_SIGNALING_VIA_NFKB,5 μM,1.4745
same,NES HALLMARK_UNFOLDED_PROTEIN_RESPONSE,5 μM,−1.3390
same,NES HALLMARK_UV_RESPONSE_DN,5 μM,1.6434
same,NES HALLMARK_XENOBIOTIC_METABOLISM,5 μM,1.2573
same,NES KEGG_DORSO_VENTRAL_AXIS_FORMATION,5 μM,1.9145
same,NES KEGG_GLYCOLYSIS_GLUCONEOGENESIS,5 μM,1.8482
same,NES KEGG_LEISHMANIA_INFECTION,5 μM,1.6760
same,NES KEGG_REGULATION_OF_AUTOPHAGY,5 μM,1.7250
same,NES KEGG_RENAL_CELL_CARCINOMA,5 μM,1.6054
same,NES KEGG_STARCH_AND_SUCROSE_METABOLISM,5 μM,2.1177
same,NES KEGG_TYPE_II_DIABETES_MELLITUS,5 μM,1.6335

# From patent US20230212122A1, “MITOCHONDRIAL TARGETING COMPOUNDS FOR THE TREATMENT OF ASSOCIATED DISEASES” (The Regents of the University of Michigan, priority 2020, published 2023)
